# Source: patent US20250319047A1, “ANTIMICROBIAL TREATMENT AND PREVENTION BY PERILLYL ALCOHOL AND DERIVATIVES” (priority 2024, published 2025)
# Experiments:
# [1] = in vivo
# Text: (§1) The antimicrobial effectiveness of POH diminishes in more dilute solutions. […] However, POH at concentrations equal to and higher than 4% will cause skin irritation and thus are not practical for clinical applications. Therefore, the highest concentration proposed is 3% to maintain a practical clinical range.
# all microorganisms = assay: Challenge of antimicrobial effectiveness of POH by concentration; assay type: cell-based
# Text: as §1
# [2] = rats, prior systemic studies; cited from earlier work
# [3] = humans, dogs, and rats; cited from earlier work
# [4] = acids formed by oxidation of POH/PCO; cited from earlier work
SMILES,concentration that will cause skin irritation [1] [%],antimicrobial effectiveness (all microorganisms; 0.1% concentration),antimicrobial effectiveness (all microorganisms; over 90% concentrations),"metabolization, detection of parent compound [2]",metabolization [3],antimicrobial activity [4]
"C=C(C)[C@@H]1CC=C(CO)CC1 [Perillyl alcohol, perillyl alcohol]",≥ 4,reasonable against all microorganisms,eradicating the microorganisms completely,not detected,rapidly metabolized,–
C=C(C)C1CCC(C(=O)O)CC1 (stereo not shown) [Dihydroperillic],–,–,–,–,–,lose the antimicrobial activity
C=C(C)[C@@H]1CC=C(C(=O)O)CC1 [Perillic],–,–,–,–,–,lose the antimicrobial activity
